Test results: patent US9839594B2, “Skin-moisturising or wrinkle-improving external composition and cosmetic composition” (KOREA INSTITUTE OF ORIENTAL MEDICINE, priority 2012, dated 2017)

Columns and labels:
Format in all cases: in vivo, hairless mice (male HR-1)
[1] = system: skins of hairless mice; assay: Skin wrinkle measurement with silicone skin replica of back skin of UV-irradiated hairless mice; conditions: 12 weeks
Experimental: (§1) 7-week old male hairless mice (male HR-1, hairless mice, Japan SLC, Inc.), the experimental animals, were purchased from Central Lab. Animal Inc (Seoul, Korea). and used after an adaption period of a week. Only healthy animals were used in the experiments by observing general conditions during the adaption period. The breeding environment was maintained at 23±3° C. with 50±5% humidity with a light-dark cycle of 12 hours (7:00-19:00/lighting time). During the experiments, seven experimental animals per each experimental group were raised in a polycarbonate cage (200×320×145 mm, Three-shine Co., Daejeon, Korea), and the animals were given both mouse feed 5L79 (Charles river, USA) and tap water for drinking sterilized with UV rays to be consumed freely.
The experiments were carried out on the following groups: a control group (Con), a UV-treated group (UV), an excipient-treated group (Vehicle), and a group treated by the compound represented by Formula 1 (TM), and the samples were administered thereto. The sample administration was performed for 12 weeks in total by spreading the samples onto skins. […]
(§2) Ultraviolet irradiation was performed on the experimental groups except for the control group using a UVB lamp (Mineralight UV Display lamp, UVP, USA) three times a week for 8 weeks. […] The UV irradiance was measured by a radiometry instrument (Delta OHM, Italy), and then, was adjusted according to irradiation time.
The degree of wrinkle formation was measured with a silicone skin replica of the back skins of the hairless mice of each experimental group. […] A shadow image, generated according to the thickness of the skin replica, was filed using a CCD camera, and the depth and length of wrinkles were measured using the Skin Visiometer VL 650 software, which is a computer image analysis system. […]

[2] = system: back skin tissues of hairless mice; assay: Histological observation of skin (H&E and Masson's trichome staining); conditions: 0.25% (w/v) topical, 12 weeks, UVB irradiation
Experimental: as §1
The experiments were carried out on the following groups: a control group (Con), a UV-treated group (UV), an excipient-treated group (Vehicle), and a group treated by the compound represented by Formula 1 (TM), and the samples were administered thereto. The sample administration was performed for 12 weeks in total by spreading the samples onto skins. For the compound treated group (TM), the compound was dissolved in dimethyl sulfoxide (DMSO), and subsequently in a mixed solution containing propylene glycol, ethanol, and poly ethylene glycol with a 1:1:1 ratio, and the dissolved formulation (the final concentration of the compound was 0.25% (w/v)) was applied to skins with the amount of 40 uL per 6 cm^2 once a day for 5 days a week. The excipient-treated group (Vehicle) were treated in the same manner as the compound treated group (TM), except the compound omitted.
(§3) Ultraviolet irradiation was performed on the experimental groups except for the control group using a UVB lamp (Mineralight UV Display lamp, UVP, USA) three times a week for 8 weeks. […] The UV irradiance was measured by a radiometry instrument (Delta OHM, Italy), and then, was adjusted according to irradiation time. […]

[3] = system: back skin tissues of hairless mice; assay: Epidermis thickness measured in H&E-stained tissues; conditions: 0.25% (w/v) topical, 12 weeks; UVB irradiation; p<0.05
Experimental: as §1, with “freely. […]” for “freely.”
as §3
The epidermis thickness was measured from the keratin layer to the epidermal basement membrane of tissues, which were stained with H&E in Experimental Example 3), by a ruler installed in a microscope, and the result is shown in FIG. 6.

[4] = system: back skins of hairless mice; assay: Transepidermal water loss (TEWL) analysis; conditions: 0.25% (w/v) topical, 12 weeks; UVB irradiation; Tewameter at 23° C., relative humidity 50%; p<0.01
Experimental: 7-week old male hairless mice (male HR-1, hairless mice, Japan SLC, Inc.), the experimental animals, were purchased from Central Lab. Animal Inc (Seoul, Korea). and used after an adaption period of a week. Only healthy animals were used in the experiments by observing general conditions during the adaption period. The breeding environment was maintained at 23±3° C. with 50±5% humidity with a light-dark cycle of 12 hours (7:00-19:00/lighting time). […]
as §2
To confirm the skin-moisturizing effect, the transepidermal water loss analysis was carried out with back skins of hairless mice in each experimental group. The transepidermal water loss level refers to the water quantity diffused from a skin, and if the level is high, it would mean that the skin moisturizing function is weakened, and that the function of innate skin barrier is damaged. […] The evaporated water quantity was then measured using Tewameter, and the skin moisturizing-ability was calculated.

[5] = compared to UV-treated group and excipient-treated group

C[C@H]1CCC2(OC1)OC1CC3C4CC[C@@H]5CC(OC6OC(CO)C(O)C(O)C6OC6OC(CO)C(O)C(O)C6O)CC[C@]5(C)C4CC[C@]3(C)C1[C@@H]2C (some centres unmarked) [compound represented by Formula 1]
degree of skin-wrinkle formation (skin replica image, FIG. 1) ([1]; 0.25% (w/v) spread onto skin, 40 uL per 6 cm^2 once a day 5 days a week, UVB irradiation 8 weeks, compared to UV-treated group): thick wrinkles were alleviated
mean wrinkle length (FIG. 2) ([1]; 0.25% (w/v) topical, UVB irradiation, compared to UV group and excipient-treated group (Vehicle), p<0.0001): significantly reduced
mean wrinkle depth (FIG. 3) ([1]; 0.25% (w/v) topical, UVB irradiation, compared to UV-treated group, p<0.0001): significantly reduced
collagen fibers (Masson's trichome staining, FIG. 5) ([2]; compared to UV-treated group): collagen fibers were increased
cornified layers (H&E staining, FIG. 4) [2, 5]: cornified layers were alleviated
epidermis (H&E staining, observed, FIG. 4) [2, 5]: thinner epidermises were observed
epidermis thickness (keratin layer to epidermal basement membrane, FIG. 6) [3]: significantly reduced
skin water loss induced by UV rays (transepidermal water loss, FIG. 7) [4]: significantly prevented
